Experimental data published in US20050069532A1, “Treatment of bacterial infection with elastase” (priority 2002, published 2005).
Residues, ends and D or L forms follow the SMILES beside them. *: point of attachment. MeOSuc = COC(=O)CCC(=O)*; CH2Cl = ClC*

Key:
[1] = tested on: Secreted proteins from Shigella; type: biochemical
[2] = tested on: Shigella virulence proteins (IpaA, IpaB, IpaC, IcsA); type: biochemical, Shigella flexneri
[3] = tested on: Secreted proteins from wild type Salmonella typhimurium (strain SL1344); type: biochemical
[4] = tested on: wild-type Shigella flexneri (M90T); type: cell-based
[5] = tested on: OmpA of nonpathogenic Escherichia coli; settings: 4 h with 106 bacteria; cited from earlier work
Sequence of OmpA of nonpathogenic Escherichia coli (P0A910 22-346): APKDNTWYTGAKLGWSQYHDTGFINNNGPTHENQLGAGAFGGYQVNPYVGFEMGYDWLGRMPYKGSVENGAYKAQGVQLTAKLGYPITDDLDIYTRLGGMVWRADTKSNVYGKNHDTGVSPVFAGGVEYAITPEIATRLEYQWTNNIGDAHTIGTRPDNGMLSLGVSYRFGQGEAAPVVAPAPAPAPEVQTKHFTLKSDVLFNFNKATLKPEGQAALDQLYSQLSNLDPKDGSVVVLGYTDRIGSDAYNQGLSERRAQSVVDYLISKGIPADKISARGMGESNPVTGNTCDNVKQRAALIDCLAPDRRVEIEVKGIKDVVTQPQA

MxiA and MxiD = type: biochemical, Shigella
Neutrophil elastase [6] = target: T1, Neutrophil elastase (Homo sapiens, UniProt P08246); experiment: Neutrophil elastase enzymatic assay in hNEGP (N-methoxysuccinyl-Ala-Ala-Pro-Val-p-nitroanilide substrate); settings: hNEGP pretreated with inhibitor (PMSF 1 mM, rm temp 20 min)
T1 sequence (P08246 30-267): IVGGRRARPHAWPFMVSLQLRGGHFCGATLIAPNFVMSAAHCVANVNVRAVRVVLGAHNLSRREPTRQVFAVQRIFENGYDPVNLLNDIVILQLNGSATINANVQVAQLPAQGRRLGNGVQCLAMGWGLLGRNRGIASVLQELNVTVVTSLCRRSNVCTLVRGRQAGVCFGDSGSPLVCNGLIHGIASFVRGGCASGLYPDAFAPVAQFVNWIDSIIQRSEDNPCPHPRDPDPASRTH
Experimental: Neutrophil elastase activity of intact neutrophils was determined as previously described (Huang et al., “Effect of Trifluoromethyl Ketone-Based Elastase Inhibitors on Neutrophil Function in Vitro,” J Leukoc Biol 64:322-330 (1998), which is hereby incorporated by reference).

[7] = target: neutrophil elastase in hNEGP (Homo sapiens, UniProt P08246); type: biochemical
[8] = tested on: human neutrophils infected with Shigella; type: cell-based; settings: 20 μM
neutrophils [9] = settings: cited from earlier work
neutrophils [10] = experiment: Cytotoxicity of inhibitor by lactate dehydrogenase (LDH) release
[11] = tested on: human neutrophils infected with wild type Shigella; type: cell-based; settings: 20 μM, 10 bacteria/neutrophil
[12] = tested on: human neutrophils infected with Shigella; settings: 20 μM, LDH release after 2 h incubation
Proteinase 3 = settings: cited from earlier work
neutrophil elastase [13] = settings: cited from earlier work
Cathepsin G = settings: cited from earlier work

Sequence of InvG (P35672 25-562): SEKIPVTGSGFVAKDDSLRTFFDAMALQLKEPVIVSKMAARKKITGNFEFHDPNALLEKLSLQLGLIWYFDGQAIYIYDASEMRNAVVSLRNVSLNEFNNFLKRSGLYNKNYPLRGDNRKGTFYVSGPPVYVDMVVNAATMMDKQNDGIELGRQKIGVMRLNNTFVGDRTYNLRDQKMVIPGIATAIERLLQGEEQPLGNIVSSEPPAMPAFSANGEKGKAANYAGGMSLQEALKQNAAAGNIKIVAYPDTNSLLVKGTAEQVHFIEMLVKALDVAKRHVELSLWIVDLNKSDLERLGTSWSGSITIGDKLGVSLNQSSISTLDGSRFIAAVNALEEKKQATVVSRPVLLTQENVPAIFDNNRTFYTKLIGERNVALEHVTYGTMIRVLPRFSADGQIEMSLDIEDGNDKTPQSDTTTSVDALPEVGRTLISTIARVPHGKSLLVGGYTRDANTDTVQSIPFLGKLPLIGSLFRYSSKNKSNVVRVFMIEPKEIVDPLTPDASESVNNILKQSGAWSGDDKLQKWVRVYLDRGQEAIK

neutrophil elastase
cleavage of proteins not associated with virulence (SepA and OspF) [1]: remained intact
cleavage of virulence factors (e.g. VirA and the Ipas) [1]: cleaved
degradation of OmpA in Shigella or E. coli [2]: not degraded
neutrophil elastase concentration at which IcsA was degraded [2]: 1.2 nM
neutrophil elastase concentration that cleaved Shigella virulence proteins significantly [2]: ≥ 1.2 nM
degradation of FliB and FliC [3]: not degraded
degradation of SipA, B, C and HAPs [3]: degraded
neutrophil elastase concentration affecting bacterial viability [4]: > 2,000 nM
neutrophil elastase concentration that partially digests OmpA [5]: 2 µM
degradation of InvG (InvG): not degraded
degradation of MxiA and MxiD (MxiA and MxiD): not degraded

O=S(=O)(F)Cc1ccccc1 [PMSF, phenylmethylsulfonyl fluoride]
inhibition of neutrophil elastase activity in hNEGP (Neutrophil elastase [6]): completely inhibited
blocking of hNEGP degradation of IpaA, B, C and IcsA [7]: blocked the degradation

CC(C)C(NC(=O)[C@@H]1CCCN1C(=O)[C@@H](NC(=O)c1ccc(C(=O)NS(=O)(=O)c2ccc(Br)cc2)cc1)C(C)C)C(=O)C(F)(F)F (stereo partly drawn) [ICI-200355]
location of non-invasive Shigella strain in neutrophils incubated with inhibitor [8]: remained in the phagosome
location of wild type Shigella in neutrophils pre-incubated with inhibitor ([8]; fixed 30 min post-infection): free in the cytoplasm
effect on ingestion or killing of non-virulent bacteria (neutrophils [9]): does not affect
cytotoxicity (LDH release) (neutrophils [10]): not cytotoxic
Shigella survival in inhibitor-treated neutrophils versus controls [11]: survived indeed better
neutrophil cell death with noninvasive Shigella control strains after inhibitor pretreatment [12]: no cell death

Cathepsin G
degradation of Shigella effectors [2]: did not degrade

COC(=O)CCC(=O)N[C@@H](C)C(=O)N[C@@H](C)C(=O)N1CCC[C@H]1C(=O)N[C@H](C(=O)CCl)C(C)C [MeOSuc-AAPV-cmk, MeOSucAlaAlaProVal-chloromethyl ketone] (MeOSuc-AAPV-CH2Cl)
inhibition of neutrophil elastase activity in hNEGP (Neutrophil elastase [6]): completely inhibited
blocking of hNEGP degradation of IpaA, B, C and IcsA [7]: effectively blocked degradation

B1: SLPI: physiologic inhibitor, human Secretory Leukocyte Protease Inhibitor (protein, UniProt P03973 26-132, looked up)
Antileukoproteinase: SGKSFKAGVCPPKKSAQCLRYKKPECQSDWQCPGKKRCCPDTCGIKCLDPVDTPNPTRRKPGKCPVTYGQCLMLNPPNFCEMDGQCKRDLKCCMGMCGKSCVSPVKA
inhibition of neutrophil elastase activity in hNEGP (Neutrophil elastase [6]): completely inhibited
block of Proteinase 3 (Proteinase 3): not
blocking of hNEGP degradation of IpaA, B, C and IcsA [7]: effectively blocked degradation
block of neutrophil elastase (neutrophil elastase [13]): blocks
block of Cathepsin G (Cathepsin G): blocks
